Measurements: PubChem BioAssay (NCI)
“And” between values parts separate entries of the source, which are not always exact repeats. Equal entries are not always repeated.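 Exposure lasted 48 hours, with cells grown in 96-well plates and compounds tested at five concentrations. Here, GI50 denotes the concentration required for 50% inhibition of growth. TGI: concentration producing complete growth inhibition.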

What was measured:
Experiment in all cases: NCI tumour cell line growth inhibition, 48 h
[1] = tested on: CCRF-CEM leukemia
[2] = tested on: DLD-1 colon
[3] = tested on: DMS 114 small cell lung
[4] = tested on: DMS 273 small cell lung
[5] = tested on: KM20L2 colon
[6] = tested on: LXFL 529 NSCLC
[7] = tested on: SNB-78 CNS
[8] = tested on: XF 498 CNS
[9] = tested on: HOP-18 NSCLC
[10] = tested on: M19-MEL melanoma
[11] = tested on: P388 leukemia
[12] = tested on: P388/ADR leukemia
[13] = tested on: SN12K1 renal

Compound `NC(=O)CCC(N=C(N)c1csc(C2OC(CO)C(O)C2O)n1)C(=O)O` (configuration not stated) has a TGI [1] of over 100 µM, a TGI [2] of over 100 µM and a TGI [3] of over 100 µM. It also gave a TGI [4] of over 100 µM, a TGI [5] of over 100 µM and a TGI [6] of over 100 µM. The TGI [7] was over 100 µM and the TGI [8] was over 100 µM.

`C/C=C/C1=CC(=O)C(O)C1O` (configuration not stated) was tested, and the TGI [1] was 103 µM, the TGI [2] was 122 µM and the TGI [3] was 72.5 µM. For the same compound, the TGI [4] was 98.9 µM, the TGI [9] was 27.1 µM and the TGI [5] was over 80.9 µM. It also gave a TGI [10] of 113 µM, a TGI [11] of 141 µM and a TGI [12] of 113 µM. For the same compound, the TGI [13] was 84.2 µM, the TGI [7] was 173 µM and the TGI [8] was 45.6 µM.

Compound `CC(=O)OC/C=C\Cn1nc(Br)c(=O)[nH]c1=O` has a TGI [1] of 24.5 µM.

For `CC(=O)NC(CCC(=O)C=[N+]=N)C(=O)O` (configuration not stated), the TGI [1] was over 100 µM.

`CNC(=O)SCC(N)C(=O)O` (configuration not stated) showed a TGI [1] of over 100 µM, a TGI [2] of over 100 µM and a TGI [3] of over 100 µM. For the same compound, the TGI [4] was over 100 µM, the TGI [9] was over 100 µM and the TGI [5] was over 100 µM. For the same compound, the TGI [11] was 39.1 µM, the TGI [12] was 58 µM and the TGI [13] was over 100 µM. It also gave a TGI [7] of over 100 µM and a TGI [8] of over 100 µM.

`CC(=O)O[C@H]1/C(=C/c2ccncc2)C[C@H]2[C@@H]3CC=C4C[C@@H](N5CCCC5)CC[C@]4(C)[C@H]3CC[C@]12C` gave a TGI [1] of 38.5 µM.

For `COC(=O)c1c(O)ccc2c1c1c(n2Cc2ccc(Cl)cc2Cl)C(=O)c2ccccc2C1=O`, the TGI [1] was 29.9 µM.

In the case of `COc1ccc(/C(O)=C/c2nc3cccnc3nc2/C=C(\O)c2ccc(OC)cc2)cc1`, the TGI [1] is reported as over 100 µM.

`O=C(N/N=C/c1cc(Cl)cc(Cl)c1[O-])c1ccccc1O.O=C(N/N=C/c1cc(Cl)cc(Cl)c1[O-])c1ccccc1O.[Zn+2]` showed a GI50 [5] of 2.05 µM and a TGI [5] of 5.17 µM.

Work on `C[C@]12CC/C(=N\O)C=C1CC[C@@H]1[C@@H]2CC[C@]2(C)C(=N/O)/C(=C/c3ccc([N+](=O)[O-])cc3)C[C@@H]12` yielded a TGI [1] of 16 µM.

Work on `CCOC(=O)c1c(Cl)nc2ccccc2c1N=[N+]=[N-]` yielded a TGI [1] of over 100 µM.

With `CCC(=O)c1ccc2[nH]c3c(C)c4c(=O)cc(C)[nH]c4c(C)c3c2c1` the TGI [1] was over 100 µM.

`Cc1oc2c(Cl)cc(O)c(Cl)c2c2cccc1-2` was tested, and the TGI [1] was 95.3 µM.

`CC(=O)NC(c1nc2cc(C)c(C)cc2[nH]1)c1nc2cc(C)c(C)cc2[nH]1` was tested, and the TGI [1] was 37 µM.

`Cc1ccc(-c2cc(C(F)(F)F)nn2-c2ccc(S(N)(=O)=O)cc2)cc1` showed a TGI [1] of 40.7 µM.

Compound `C1=C(c2ccccc2)Nc2nnnn2C1c1ccccc1` (configuration not stated) has a TGI [1] of 0.0305 µM.

Work on `S=C1CC(c2ccccc2)Sc2ccccc2N1` (configuration not stated) yielded a TGI [1] of over 100 µM.

For `CC1CCC2(C(=O)O)CCC3(C)C(=CCC4C5(C)CCC(O)C(C)(C)C5CCC43C)C2C1C` (configuration not stated), the GI50 [1] was 3.59 µM and 16.6 µM, the TGI [1] was 27.9 µM and > 100 µM and the TGI [2] was 17 µM. For the same compound, the TGI [3] was 21.5 µM, the TGI [4] was 22 µM and the TGI [9] was 34.4 µM. It also gave a TGI [5] of 17.5 µM, a TGI [10] of 18.9 µM and a TGI [11] of 9.48 µM. It also gave a TGI [12] of 17.8 µM, a TGI [13] of 12.9 µM and a TGI [7] of 29.3 µM. The TGI [8] was 11.7 µM.

`COc1cccc(/C=N/[N-]C(N)=O)c1[O-].[Ni+2].[OH3+].c1ccc(-c2ccccn2)nc1` showed a TGI [1] of over 100 µM and a TGI [5] of over 100 µM.

For `CC1CC[C@@]2(OC1)OC1CC3C4CCC5C[C@@H](OC6OC(CO)C(OC7OC(CO)C(O)C(OC8OC(CO)C(O)C(OC9OC(CO)C(O)C(O)C9O)C8O)C7OC7OC(CO)C(O)C(O)C7O)C(O)C6O)[C@H](O)C[C@]5(C)C4CC[C@]3(C)C1[C@@H]2C` (some centres not stated), the TGI [1] was over 80.5 µM.
